Measurements from patent US20040141944A1, “Inhibition of xenoreactive antibodies” (priority 1998, published 2004).

Legend:
[1] = test system: peripheral blood-derived ASCs; experiment: short-term in vitro effects of TPC on peripheral blood-derived ASCs (ELISPOT); format: cell-based; settings: 50 ug/mL TPC (410S), 2 hours at 37° C., heparinized peripheral blood from a normal donor
Experimental: To each well of the first 10 columns of a sterile hydrazine modified polystyrene 96-well plate (Corning Costar, Cambridge, Mass.), 100 μL per well of a solution containing 3.2 mg/mL αGal(1,3)Gal β 1-4 GlcNAc, 3.1 mg/mL EDC and 2.4 mg/mL NHS were added in a darkened cold room and the reaction proceeded for four hours. After careful washing with sterile H2O, the plates were completely covered with plastic strips and stored at 4° C. until use. Plates were blocked with sterile 400 ul/well of PBS/1% HSA for 2 hours at 37° C. Peripheral blood mononuclear cells were isolated by Ficoll-Hypaque (specific gravity, 1.077 g/mL; Pharmacia Fine Chemicals, Piscatawy, N.J.) density gradients at 400 g for 30 min. at 22° C. […] Plates were incubated overnight in the dark at room temperature and single Ab-secreting, spot forming cells (ASC) were visualized, analyzed and counted under low magnification using an inverted phase microscope. Data represents total isotype specific anti-gal Ab-secreting cells/10^6 PBMNCs, calculated from serially diluted cell samples.
short-term in vitro effects of TPC on peripheral blood-derived ASCs were assessed by incubating (2 hours at 37° C., with rotation at 6 rpm) heparinized peripheral blood from a normal donor in the presence or absence of 50 ug/mL TPC (410S). […]

[2] = test system: kidney from a transgenic pig expressing human CD59, human CD46 and human DAF; experiment: transgenic pig kidney transplant into TPC-treated baboon; format: in vivo
Experimental: Immunoapheresis #1 reduced circulating IgM XNA levels to 40% of pretreatment levels. Two days later, a rebound to about 50% of pretreatment levels was observed, and after a second immunoapheresis plus administration of 250 mg TPC, circulating IgM xXNA levels were undetectable. Three days later, a rebound in IgM XNA to 35% pretreatment levels occurred, and administration of 250 mg TPC brought these levels to about 5%. […] On day 31, a kidney from a transgenic pig expressing human CD59, human CD46 and human DAF was transplanted into the baboon, and a bilateral nephrectomey was performed on the baboon native kidneys. Thus, the baboon was dependent upon the porcine kidneys for physiological function.

[3] = test system: xenoreactive IgG (X IgG) and xenoreactive IgM (X IgM); experiment: effect of TPC on xenoreactive antibody levels in cynomolgous monkeys; format: in vivo
Experimental: TPC molecule 410S was prepared as described in Example 5. 410S or PEG control was administered to cynomolgous monkeys in doses of either 50 mg or 250 mg every 3 days for 2 weeks. Blood was drawn for serum before and after each administration. During the subsequent 2 week period, blood was drawn each Monday and Friday. Serum samples were analyzed for xenoreactive IgG (X IgG) and xenoreactive IgM (X IgM).

[4] = test system: circulating anti-Gal ASC (IgM and IgG); experiment: in vivo effects of TPC administration on circulating anti-Gal ASC (ELISPOT); parameters: species or system cynomologous monkeys
Experimental: To each well of the first 10 columns of a sterile hydrazine modified polystyrene 96-well plate (Corning Costar, Cambridge, Mass.), 100 μL per well of a solution containing 3.2 mg/mL αGal(1,3)Gal β 1-4 GlcNAc, 3.1 mg/mL EDC and 2.4 mg/mL NHS were added in a darkened cold room and the reaction proceeded for four hours. After careful washing with sterile H2O, the plates were completely covered with plastic strips and stored at 4° C. until use. Plates were blocked with sterile 400 ul/well of PBS/1% HSA for 2 hours at 37° C. Peripheral blood mononuclear cells were isolated by Ficoll-Hypaque (specific gravity, 1.077 g/mL; Pharmacia Fine Chemicals, Piscatawy, N.J.) density gradients at 400 g for 30 min. at 22° C. Low density mononuclear cells at the interfaces were harvested, washed twice by centrifugation (400 g for 10 min.) and resuspended in serum-free complete culture medium consisting of RPMI 1640 (GIBCO, Grand Island, N.Y.) supplemented with 1% HSA, 2 mM L-glutamine, and 100 U/mL penicillin/100 ug/mL streptomycin (GIBCO, Grand Island, N.Y.). Manual hemacytometer cell counts and viability determinations were performed using trypan blue exclusion dye. Thereafter, serial dilutions of PBMNCs (starting at 5×10^5 cells) in 100 ul of serum-free complete culture medium were added to each well and incubated for 18-24 hours at 37° C. in 5% CO2. After washing 8 times using PBS/0.1% Tween-20, the plates were incubated with biotinylated isotype specific goat anti-human Abs (biotin goat anti-human IgM Cat#62-7540; biotin goat anti-human IgG (H&L) Cat# 62-7140, Zymed, San Francisco, Calif.)(1:1000) at 37° C. for 4 hours. After washing, streptavidin conjugated alkaline phosphatase (Cat# 43-4322, Zymed, San Francisco, Calif.) (1:1000) was added for 30 min. at 37° C. Finally, after washing an additional 8 times with PBS/0.1% Tween-20, 5-Bromo-4-chloro-3indolyl-phosphate (Cat# B-8503, Sigma, St. Louis, Mo.) dissolved in 1% low-melt sea-plaque agarose (FMC Bioproducts, Cat#50101) was added as gel substrate to each well. Plates were incubated overnight in the dark at room temperature and single Ab-secreting, spot forming cells (ASC) were visualized, analyzed and counted under low magnification using an inverted phase microscope. Data represents total isotype specific anti-gal Ab-secreting cells/10^6 PBMNCs, calculated from serially diluted cell samples.
To investigate the in vivo response of circulating anti-Gal ASC to TPC administration, we measured the number of ASC per 10^6 peripheral blood mononuclear cells isolated from cynomologous monkeys treated with either TPC (410S) or blocked-PEG as control. Blocked PEG is a 4-arm, 10,000 MW PEG-amine that was reacted with acetic anhydride in order to block the amine-groups of the PEG. Briefly, heparinized peripheral blood samples (2-3 mL) from TPC and PEG treated monkeys were obtained prior to experimentation, after 6 dosages of TPC, 7 days following porcine heart transplantation with daily infusions, 7 days post infusion termination, and 18 days post infusion. Mononuclear cells were isolated via Ficoll-Hypaque gradient centrifugation and assayed for anti-Gal IgM and IgG ASC using the ELISPOT assay as described in Example 15. […] In contrast, the number of IgG ASC in the PEG treated animal increased 14.9-fold with no detectable change in the number of IgM ASC. Seven days after the termination of TPC treatment, 14 days post transplantation, circulating IgG and IgM ASC were 27-84% and 1.3-9.8% of baseline values, respectively. In the PEG treated monkey, IgG ASC were 4.4 above baseline and IgM ASC levels reduced 51%.

[5] = day 7 post transplantation (porcine transgenic heart), daily TPC
[6] = seven days after termination of TPC treatment, 14 days post transplantation

## (αGal(1,3)Gal β 1-4 GlcNAc)4-PEG [Example 410S]
[1]
  effect on the number of detectable ASCs: no effect
  effect on total cell yield and viability: no effect
[2]; Baboon 376-96, transplant on day 31, euthanized post-op day 4
  pathology analysis of the explanted pig kidney: no evidence of hyperacute rejection
[2]; Baboon 376-96, transplant on day 31 with bilateral nephrectomy
  function of the transplanted kidney: primary nonfunction
[3]; 50 mg and 250 mg doses, compared with the IgM effect
  effect on anti-Gal IgG levels: the effect was not as dramatic
[3]; 50 mg animals, 15 days post-treatment
  anti-Gal IgM level, % of the initial level: ~40%
[3]; 50 mg dose every 3 days, after 6 TPC treatments
  anti-Gal IgM level, % of the initial level: approximately 15%
[3]; 250 mg animals, 15 days post-treatment
  anti-Gal IgM level, % of the predosing level: 15%
[3]; 250 mg dose every 3 days, after 6 TPC treatments
  anti-Gal IgM level, % of the initial level: approximately 5%
[4]; 18 days post TPC termination
  IgG ASC values: returned to near normal baseline values
[4]; [5]
  circulating IgG ASC levels decreased: 70-99.7%
  circulating IgM ASC levels decreased: 98.5-100%
[4]; following 6 dosages of TPC over 18 days
  circulating anti-Gal ASC (IgM and IgG) numbers inhibited: 70-99%
[4]; [6]
  circulating IgG ASC, % of baseline values: 27-84%
  circulating IgM ASC, % of baseline values: 1.3-9.8%
